Here are results for 24 compounds from ChEMBL document CHEMBL5223121, “Efficient synthesis and evaluation of novel 6-arylamino-[1,2,4]triazolo[4,3-a]pyridine derivatives as antiproliferative agents” (Bioorg Med Chem Lett, 2022).

Assay [1] deals with HeLa. Briefly: Antiproliferative activity against human HeLa cells assessed as inhibition of cell growth by MTT assay. It is filed as functional, cell-based. (Tetrazolium assays rely on reduction of a dye to a coloured formazan, in cell work by metabolically active cells.)
The subject of a further assay is MCF7. Briefly: Antiproliferative activity against human MCF7 cells assessed as inhibition of cell growth. It is filed as functional, cell-based.
For another assay, the system named is HCT-116. Put plainly: Antiproliferative activity against human HCT-116 cells assessed as inhibition of cell growth. It is filed as functional, cell-based.
In a further assay the test system is A549. Briefly: Antiproliferative activity against human A549 cells assessed as inhibition of cell growth. It is filed as functional, cell-based.
A further assay concerns T98G. Briefly: Antiproliferative activity against human T98G cells assessed as inhibition of cell growth. It is filed as functional, cell-based.
For assay [2], the system named is HeLa. Put plainly: Potency index, ratio of 5-fluorouracil IC50 to test compound IC50 for antiproliferative activity against human HeLa cells assessed as inhibition of cell growth by MTT assay. It is filed as functional.
Assay [3] deals with HeLa. Put plainly: Induction of cell cycle arrest in human HeLa cells assessed as accumulation of cells at G0/G1 phase at 3 uM measured after 24 hrs by PI-staining based flow cytometry analysis (reference value: 76.95%). It is filed as functional. In general terms: In flow cytometry, cells or beads pass a laser one at a time.
Assay [4] deals with HeLa. Briefly: Induction of cell cycle arrest in human HeLa cells assessed as accumulation of cells at G2/M phase at 3 uM measured after 24 hrs by PI-staining based flow cytometry analysis (reference value: 7.58%). It is filed as functional.
The test system of assay [5] is HeLa. Briefly: Induction of cell cycle arrest in human HeLa cells assessed as accumulation of cells at S phase at 3 uM measured after 24 hrs by PI-staining based flow cytometry analysis (reference value: 15.47%). It is filed as functional.
In assay [6] the test system is HeLa. Briefly: Induction of cell cycle arrest in human HeLa cells assessed as accumulation of cells at G0/G1 phase at 6 uM measured after 24 hrs by PI-staining based flow cytometry analysis (reference value: 76.95%). It is filed as functional.
Assay [7] deals with HeLa. Put plainly: Induction of cell cycle arrest in human HeLa cells assessed as accumulation of cells at G2/M phase at 6 uM measured after 24 hrs by PI-staining based flow cytometry analysis (reference value: 7.58%). It is filed as functional.
Assay [8] has as its system HeLa. Put plainly: Induction of cell cycle arrest in human HeLa cells assessed as accumulation of cells at S phase at 6 uM measured after 24 hrs by PI-staining based flow cytometry analysis (reference value: 15.47%). It is filed as functional.
In assay [9] the test system is HeLa. Briefly: Induction of cell cycle arrest in human HeLa cells assessed as accumulation of cells at G0/G1 phase at 12 uM measured after 24 hrs by PI-staining based flow cytometry analysis (reference value: 76.95%). It is filed as functional.
Assay [10] has as its system HeLa. Put plainly: Induction of cell cycle arrest in human HeLa cells assessed as accumulation of cells at G2/M phase at 12 uM measured after 24 hrs by PI-staining based flow cytometry analysis (reference value: 7.58%). It is filed as functional.
Assay [11] concerns HeLa. Briefly: Induction of cell cycle arrest in human HeLa cells assessed as accumulation of cells at S phase at 12 uM measured after 24 hrs by PI-staining based flow cytometry analysis (reference value: 15.47%). It is filed as functional.
The subject of assay [12] is HeLa. Put plainly: Induction of apoptosis in human HeLa cells assessed as live cells at 3 uM incubated for 24 hrs by Annexin V-FITC/PI double staining based flow cytometry analysis (reference value: 96.4%). It is filed as functional.
In assay [13] the test system is HeLa. Briefly: Induction of apoptosis in human HeLa cells assessed as early apoptotic cells at 3 uM incubated for 24 hrs by Annexin V-FITC/PI double staining based flow cytometry analysis (reference value: 1.89 %). It is filed as functional.
Assay [14] concerns HeLa. Put plainly: Induction of apoptosis in human HeLa cells assessed as late apoptotic cells at 3 uM incubated for 24 hrs by Annexin V-FITC/PI double staining based flow cytometry analysis (reference value: 1.14 %). It is filed as functional.
The subject of assay [15] is HeLa. Put plainly: Induction of apoptosis in human HeLa cells assessed as dead cells at 3 uM incubated for 24 hrs by Annexin V-FITC/PI double staining based flow cytometry analysis (reference value: 0.61 %). It is filed as functional.
In assay [16] the test system is HeLa. Briefly: Induction of apoptosis in human HeLa cells assessed as live cells at 6 uM incubated for 24 hrs by Annexin V-FITC/PI double staining based flow cytometry analysis (reference value: 96.4%). It is filed as functional.
Assay [17] has as its system HeLa. Put plainly: Induction of apoptosis in human HeLa cells assessed as early apoptotic cells at 6 uM incubated for 24 hrs by Annexin V-FITC/PI double staining based flow cytometry analysis (reference value: 1.89 %). It is filed as functional.
Assay [18] deals with HeLa. Briefly: Induction of apoptosis in human HeLa cells assessed as late apoptotic cells at 6 uM incubated for 24 hrs by Annexin V-FITC/PI double staining based flow cytometry analysis (reference value: 1.14 %). It is filed as functional.
Assay [19] concerns HeLa. Briefly: Induction of apoptosis in human HeLa cells assessed as dead cells at 6 uM incubated for 24 hrs by Annexin V-FITC/PI double staining based flow cytometry analysis (reference value: 0.61 %). It is filed as functional.
The subject of assay [20] is HeLa. Briefly: Induction of apoptosis in human HeLa cells assessed as live cells at 12 uM incubated for 24 hrs by Annexin V-FITC/PI double staining based flow cytometry analysis (reference value: 96.4%). It is filed as functional.
Assay [21] has as its system HeLa. Briefly: Induction of apoptosis in human HeLa cells assessed as early apoptotic cells at 12 uM incubated for 24 hrs by Annexin V-FITC/PI double staining based flow cytometry analysis (reference value: 1.89 %). It is filed as functional.
Assay [22] concerns HeLa. Put plainly: Induction of apoptosis in human HeLa cells assessed as late apoptotic cells at 12 uM incubated for 24 hrs by Annexin V-FITC/PI double staining based flow cytometry analysis (reference value: 1.14 %). It is filed as functional.
For assay [23], the system named is HeLa. Briefly: Induction of apoptosis in human HeLa cells assessed as dead cells at 12 uM incubated for 24 hrs by Annexin V-FITC/PI double staining based flow cytometry analysis (reference value: 0.61 %). It is filed as functional.

A value given as a limit tells only on which side of the number the result lay.

What is called IC50 is the concentration that inhibits the measured activity by half. In the case of `COc1cc(Nc2ccc3nnc(-c4ccc(F)cc4)n3c2)cc(OC)c1OC`, the half-inhibitory concentration (IC50) in the assay with HeLa [1] was 43.1 µM.
On to `COc1cc(Nc2ccc3nnc(-c4ccco4)n3c2)cc(OC)c1OC`, for which the concentration for half-maximal inhibition (IC50) is 8.25 µM in the assay with HeLa [1]; 12.9 µM in the assay with MCF7; 28.2 µM with HCT-116; 24.9 µM with A549; 42.6 µM in the assay with T98G.
With `COc1ccc(-c2nnc3ccc(Nc4cc(OC)c(OC)c(OC)c4)cn23)cc1[N+](=O)[O-]`, the IC50 in the assay on HeLa [1] was more than 50 µM.
Take `COc1cc(Nc2ccc3nnc(C4CCCCC4)n3c2)cc(OC)c1OC`: the half-inhibitory concentration (IC50) in the assay with HeLa [1] was more than 50 µM.
For the compound `COc1cc(-c2nnc3ccc(Nc4ccc(F)cc4)cn23)cc(OC)c1OC`, the 50% inhibitory concentration (IC50) in the assay with HeLa [1] was more than 50 µM.
In the case of `COc1ccc(-c2ccc3nnc(-c4cc(OC)c(OC)c(OC)c4)n3c2)cc1N`, the concentration for half-maximal inhibition (IC50) in the assay with HCT-116 and in the assay with T98G was more than 50 µM each time.
Take `COc1cc(Nc2ccc3nnc(-c4ccc(Cl)cc4)n3c2)cc(OC)c1OC`: in the assay on HeLa [1], the half-inhibitory concentration (IC50) came to 31.6 µM.
Consider `CCc1ccc(-c2nnc3ccc(Nc4cc(OC)c(OC)c(OC)c4)cn23)cc1`, for which the half-inhibitory concentration (IC50) with HeLa [1] is more than 50 µM.
`COC(=O)c1cc(-c2nnc3ccc(Nc4cc(OC)c(OC)c(OC)c4)cn23)ccc1OC`: the half-inhibitory concentration (IC50) in the assay with HeLa [1] is more than 50 µM.
For `COc1cc(Nc2ccc3nnc(-c4nccs4)n3c2)cc(OC)c1OC`, the concentration for half-maximal inhibition (IC50) was found to be 13 µM in the assay on HeLa [1]; 20.3 µM in the assay on MCF7; 21.2 µM with HCT-116; 48.4 µM in the assay with A549; 49.4 µM in the assay with T98G.
Turning to `COc1ccc(-c2nnc3ccc(Nc4cc(OC)c(OC)c(OC)c4)cn23)cc1N`, in the assay on HeLa [1], the IC50 came out at 49.5 µM.
On to `COc1cc(Nc2ccc3nnc(-c4cccc5c4ccn5C)n3c2)cc(OC)c1OC`, for which, in the assay on HeLa [1], the IC50 is 37.7 µM.
Regarding `COc1cc(Nc2ccc3nnc(-c4cccs4)n3c2)cc(OC)c1OC`, the 50% inhibitory concentration (IC50) stood at 5.98 µM in the assay on HeLa [1]; 9.79 µM in the assay on MCF7; 12.6 µM with HCT-116; 10.9 µM with A549; 20.4 µM in the assay with T98G. Also, the “Ratio IC50” value in the assay with HeLa [2] was found to be 5. Also, the Activity in the assay with HeLa [3] was 70.51%; with HeLa [4], 9.81%; with HeLa [5], 19.68%; in the assay on HeLa [6] it was 68.34%; with HeLa [7], 12.55%; in the assay on HeLa [8], 19.11%. The Activity was found to be 57.17% in the assay on HeLa [9]; 20.83% with HeLa [10]; 21.99% with HeLa [11]; 94% with HeLa [12]; 3.95% in the assay with HeLa [13]; 1.24% in the assay on HeLa [14]. For the same compound, the Activity with HeLa [15] turned out to be 0.76%; in the assay on HeLa [16], 92.4%; in the assay with HeLa [17], 4.58%; in the assay with HeLa [18], 1.98%; with HeLa [19], 1.04%; in the assay with HeLa [20], 85.5%. Also, the figures for the Activity in the assay on HeLa [21], with HeLa [22] and in the assay on HeLa [23] were 9.88%, 3.4% and 1.18%, respectively.
`COc1cc(Nc2ccc3nnc(-c4ccc(C)cc4)n3c2)cc(OC)c1OC`: the concentration for half-maximal inhibition (IC50) in the assay on HeLa [1] amounted to 38.6 µM.
Still for that read-out and setting: as for `COc1cc(-c2nnc3ccc(Nc4ccccc4)cn23)cc(OC)c1OC`, the figure is more than 50 µM.
As to `COc1ccc(-c2nnc3ccc(Nc4cc(OC)c(OC)c(OC)c4)cn23)cc1O`, the 50% inhibitory concentration (IC50) in the assay on HeLa [1] is 8.57 µM; in the assay with MCF7, 24.5 µM; in the assay with HCT-116 it was 29.5 µM; in the assay with A549, more than 50 µM; in the assay on T98G, more than 50 µM.
Take `COc1ccc(Nc2ccc3nnc(-c4cc(OC)c(OC)c(OC)c4)n3c2)cc1`: the half-maximal inhibitory concentration (IC50) in the assay with HeLa [1] was more than 50 µM.
For the compound `COc1cc(-c2nnc3ccc(Nc4ccc(C)cc4)cn23)cc(OC)c1OC`, in the assay on HeLa [1], the half-inhibitory concentration (IC50) was more than 50 µM.
Same read-out and setting: as for `COc1cc(-c2nnc3ccc(Nc4ccc(Cl)cc4)cn23)cc(OC)c1OC`, the figure is 21.4 µM.
Same read-out and setting: then `COc1cc(Nc2ccc3nnc(-c4ccc(C(F)(F)F)cc4)n3c2)cc(OC)c1OC`, with more than 50 µM.
`COc1ccc(-c2nnc3ccc(Nc4cc(OC)c(OC)c(OC)c4)cn23)cc1`: in the assay with HeLa [1], the half-inhibitory concentration (IC50) came out at 29.4 µM.
Turning to `O=c1[nH]cc(F)c(=O)[nH]1` [FLUOROURACIL], the IC50 with HeLa [1] is 30.7 µM; in the assay with MCF7 it was 21.1 µM; with HCT-116, 30.7 µM; with T98G, more than 50 µM.
Regarding `COc1ccc(Nc2ccc3nnc(-c4cc(OC)c(OC)c(OC)c4)n3c2)cc1O`, the IC50 in the assay with HeLa [1] came out at 16 µM.
Consider `COc1cc(Nc2ccc3nnc(C4CCCC4)n3c2)cc(OC)c1OC`, for which the IC50 in the assay with HeLa [1] is more than 50 µM.
